Measured values published in patent US5320948A, “Cephalosporin C acylase” (Fujisawa Pharmaceutical Co., Ltd., priority 1990, dated 1994).
Several values for one entry are separate records, joined by “and”; a condition that tells them apart may be missing. Identical values can stand only once. Like-named read-outs stand apart in the source and are kept apart here.

How the values were obtained:
CC acylase N-176 [1] = assay: Determination of inhibition constants (Ki) for reaction products, GL-7ACA acylase activity; format: biochemical, Pseudomonas diminuta N-176; conditions: for mode of inhibition: Lineweaver-Burk plots in absence and presence of inhibitor; for Ki: substrate GL-7ACA, 0.1M glycine buffer pH 9, 37° C., 3 min
Description: Enzyme activity was assayed in the presence of 7-ACA or glutaric acid. For determination of Ki of 7-ACA, reaction mixtures (200 μl) containing 0.1M glycine buffer (pH 9), 0.26-2.08 μmole of GL-7ACA, 0.182-1.0 μmole of 7-ACA and 1 μg of enzyme was incubated at 37° C. for 3 min. For determination of Ki of glutaric acid, reaction mixture (200 μl) containing 0.1M glycine buffer (pH 9), 0.096-2.08 μmole of GL-7ACA, 0.25-0.5 μmole of glutaric acid and 0.5 μg of the enzyme was incubated at 37° C. for 3 min. […] Ki values were calculated from the apparent Michaelis constants (Kmapp), Km and Vmax.

CC acylase N-176 [2] = assay: Substrate profile of CC acylase N-176, HPLC assay; format: biochemical, Pseudomonas diminuta N-176; conditions: percentage compared to the activity for GL-7ACA; 2 mg substrate, 20 μg enzyme, pH 9, 50° C., 2 min
Description: (§1) Transformant colonies were picked up and grown overnight at 30° C. in 1 ml of 2% Bouillon (Eiken Chemical Co., Ltd., Japan) supplemented with 1 mM […] (IPTG: Sigma Chemical Co., Ltd., U.S.A.). Cells were harvested by centrifugation and resulting cell pellets were used for assay. Reaction mixture (200 μl) containing 100 mM phosphate (pH 8), 2 mg of GL-7ACA or cephalosporin C Na and cell pellets were thoroughly mixed and incubated for 10 min at 37° C. The reaction was terminated by the addition of 200 μl of 4% acetic acid. Samples were applied to a Inertsil ODS-2 column (4.6 mm×150 mm)(Gasukuro Kogyo Co., Ltd., Japan) and elution was performed with 0.567 g/l of Na2 PO4, 0.36 g/l of KH2 PO4 and 2-4% methanol. 7ACA was detected with absorption at 254 nm.
Enzyme activity was determined by HPLC assay. Reaction mixture (200 μl) containing 100 mM glycine buffer (pH 9), 2 mg of a substrate and 20 μg of the enzyme was incubated at 50° C. for 2 min and the reaction was terminated by addition of 4% acetic acid. The relative enzyme activity was expressed as a percentage compared to the activity for GL-7ACA. To be noted, acylase activity for cephalosporin C was examined also by detecting the production of α-aminoadipic acid with the amino acid analyzer (Hitachi Co., Ltd., Japan).

CC acylase N-176 [3] = assay: Specific enzyme activity, HPLC assay (Vmax and Km by Lineweaver-Burk plot); format: biochemical, Pseudomonas diminuta N-176; conditions: substrate of CC acylase N-176, 100 mM glycine buffer pH 9, 37° C., 2 min; for Km: read-out: Michaelis constant (Km)
Description: as §1
The activity of the cephalosporin C acylase was determined by HPLC assay. Reaction mixtures (200 μl) containing 100 mM glycine buffer (pH 9), 1.25-40 mM Cephalosporin C Li and 19 μg of the enzyme is used for assay of cephalosporin C acylase, meanwhile for assay of GL-7ACA acylase activity, reaction mixture (200 μl) containing 100 mM glycine buffer (pH 9), 0.48-10.4 mM GL-7ACA and 0.5 μg of the enzyme is used. Reaction mixtures were incubated for 2 min at 37° C. and the reaction was terminated by addition of 200 μl of 4% acetic acid. Conditions for HPLC were the same as those described in Example 1.3. All assays used later in this section was HPLC method. Specific enzyme activity was expressed as unit per mg of protein. Protein concentrations were determined by Bio-Rad protein assay kit (Bio-Rad Co., Ltd., U.S.A.) with bovine serum albumin as a standard. Maximum specific enzyme activity (Vmax) and Michaelis constant (Km) were calculated from slope and intersection which were obtained by Lineweaver-Burk plot (Cf. M. Dixon and E. C. Webb, Enzymes, Longmans, London, 1958). Maximum specific enzyme activity of CC acylase N-176 was 100 and 3.1 units/mg for GL-7ACA and cephalosporin C, respectively.

CC acylase N-176 [4] = format: biochemical, Pseudomonas diminuta N-176; conditions: pH 9
Description: Effect of p-chloromercuribenzoate (pCMB, Sigma Chemical Co., Ltd.), phenylmethylsulfonyl fluoride (PMSF, Sigma) and ethylenediaminetetraacetic acid (EDTA, Nacalai Tesque Inc., Japan) on the activity of CC acylase N-176 was examined as follows. Four μg of CC acylase N-176 was treated at 37° C. for 4 hours with 0.1 or 1.0 mM pCMB, 0.1, 1.0, 2.0 or 5.0 mM PMSF, or 1.0 or 5.0 mM EDTA in 200 μl of 0.1M glycine buffer (pH 9). Residual activity of the treated enzyme was assayed by adding 22 μl of GL-7ACA (100 mg/ml) as a substrate to the mixture The reaction was performed at 37° C. for 2 min. Residual activity was expressed as a percentage compared to the activity of the enzyme treated with blank solution.

[5] = Optimum temperature of the enzyme; format: biochemical; conditions: 0.1M glycine buffer pH 9, 2 mg GL-7ACA, 2 min, 25° to 60° C.
Description: Reaction mixture (200 μl) containing 0.1M glycine buffer (pH 9), 2 mg of GL-7ACA and 2 μg of the enzyme were incubated for 2 min at various temperature from 25° to 60° C. The optimum temperature was 50° C.

Optimum pH of the enzyme = format: biochemical; conditions: 0.1M buffers pH 6-10, 37° C., 2 min
Description: Reaction mixture (200 μl) containing 0.1M buffer (phosphate buffer between pH 6-8, Tris HCl buffer between pH 7-9 and glycine buffer between pH 8-10), 2 mg of GL-7ACA or 3.3 mg of cephalosporin C Li and 3 μg of the enzyme was used. The reaction was performed at 37° C. for 2 min. Optimum pH for the enzyme was 9.

[6] = Determination of isoelectric point (pI) by analytical isoelectric focusing; format: physicochemical; conditions: 4% polyacrylamide gel, Ampholine pH range 3.5-10
Description: Analytical isoelectric focusing of CC acylase N-176 was performed according to the method of Olson et al(Cf.FEMS Microbiol. Lett. 1, 157-162(1977)). Purified acylase preparation was applied on thin layer of 4% polyacrylamide gel containing 2% Ampholine pH range 3.5-10 (Pharmacia LKB Biotechnology, Sweden). The proteins were electrofocused for 2 hours at 100 volts using isoelectric focusing apparatus SJ-1071EC (ATTO Co., Ltd., Japan). After electrofocusing, the gel was stained with Coomassie Brilliant Blue R-250 and the isoelectric point was determined from the calibration curve made with pI markers (Pharmacia LKB Technology) which were run simultaneously with the sample. The pI value of CC acylase N-176 was estimated to be 4.5.

[7] = inhibitor 0.1 mM, treated at 37° C. for 4 hours, substrate GL-7ACA
[8] = inhibitor 1.0 mM, treated at 37° C. for 4 hours, substrate GL-7ACA

CC(=O)OCC1=C(C(=O)O)N2C(=O)[C@@H](N)[C@H]2SC1 [7-ACA, 7-aminocephalosporanic acid]
mode of inhibition (CC acylase N-176 [1]): competitive | Ki (CC acylase N-176 [1]): 1400 µM

CC(=O)OCC1=C(C(=O)O)N2C(=O)[C@@H](NC(=O)CCCCC(=O)O)[C@H]2SC1 [Adipyl 7ACA, 7(5-carboxypentanamido)-3-acetoxymethyl-3-cephem-4-carboxyli acid]
Relative enzyme activity (CC acylase N-176 [2]): 19%

CC(=O)OCC1=C(C(=O)O)N2C(=O)[C@@H](NC(=O)CCC[C@@H](N)C(=O)O)[C@H]2SC1 [Cephalosporin C]
Maximum specific enzyme activity (Vmax) (CC acylase N-176 [3]): 3.1 units/mg | Km (CC acylase N-176 [3]): 4.8 mM | Relative enzyme activity (CC acylase N-176 [2]): 4%

CC(=O)OCC1=C(C(=O)O)N2C(=O)[C@@H](NC(=O)Cc3cccs3)[C@H]2SC1 [Cephalothin]
Relative enzyme activity (CC acylase N-176 [2]): 0.08%

O=C(O)CN(CCN(CC(=O)O)CC(=O)O)CC(=O)O [EDTA, ethylenediaminetetraacetic acid]
Residual enzyme activity (%) (CC acylase N-176 [4]): 91% and 73%

CC(=O)OCC1=C(C(=O)O)N2C(=O)[C@@H](NC(=O)CCCC(=O)O)[C@H]2SC1 [Glutaryl 7ACA, 7(4-carboxybutanamdio)-3-acetoxymethyl-3-cephem-4-carboxylic acid]
Maximum specific enzyme activity (Vmax) (CC acylase N-176 [3]): 100 units/mg | Km (CC acylase N-176 [3]): 2.6 mM | Relative enzyme activity (CC acylase N-176 [2]): 100%

CC(=O)N[C@H](CCCC(=O)N[C@@H]1C(=O)N2C(C(=O)O)=C(COC(C)=O)CS[C@H]12)C(=O)O [N-Acetylcephalosporin C]
Relative enzyme activity (CC acylase N-176 [2]): 0.1%

CC(=O)OCC1=C(C(=O)O)N2C(=O)[C@@H](NC(=O)CCC[C@@H](NC(=O)c3ccccc3)C(=O)O)[C@H]2SC1 [N-Benzyoylcephalosporin C, N-benzoylcephalosporin C]
Relative enzyme activity (CC acylase N-176 [2]): 0.0003%

O=S(=O)(F)Cc1ccccc1 [PMSF, phenylmethylsulfonyl fluoride]
Residual enzyme activity (%) (CC acylase N-176 [4]; [7]): 96% | Residual enzyme activity (%) (CC acylase N-176 [4]; [8]): 91% | Residual enzyme activity (%) (CC acylase N-176 [4]; inhibitor 2.0 mM, treated at 37° C. for 4 hours, substrate GL-7ACA): 79% | Residual enzyme activity (%) (CC acylase N-176 [4]; inhibitor 5.0 mM, treated at 37° C. for 4 hours, substrate GL-7ACA): 62%

CC(=O)OCC1=C(C(=O)O)N2C(=O)[C@@H](NC(=O)CCC(=O)O)[C@H]2SC1 [Succinyl 7ACA, 7(3-carboxypropionamido)-3-acetoxymethyl-3-cephem-4-carboxylic acid]
Relative enzyme activity (CC acylase N-176 [2]): 32%

O=C(O)CCCC(=O)O [glutaric acid]
mode of inhibition (CC acylase N-176 [1]): competitive | Ki (CC acylase N-176 [1]): 2500 µM

O=C(O)c1cc[c]([Hg][Cl])cc1 [pCMB, p-chloromercuribenzoate]
Residual enzyme activity (%) (CC acylase N-176 [4]; [7]): 7.8% | Residual enzyme activity (%) (CC acylase N-176 [4]; [8]): 4.6%

B1: CC acylase N-176: new cephalosporin C acylase derived from Pseudomonas diminuta N-176, composed of α and β subunits (protein)
chain: MTMAANTDRAVLQAALPPLSGSLPIPGLSASVRVRRDAWGIPHIKASGEADAYRALGFVHSQDRLFQMELTRRKALGRAAEWLGAEAAEADILVRRLGMEKVCRRDFEALGVEAKDMLRAYVAGVNAFLASGAPLPVEYGLLGAEPEPWEPWHSIAVMRRLGLLMGSVWFKLWRMLALPVVGAANALKLRYDDGGRDLLCIPPGAEADRLEADLATLRPAVDALLKAMGGDASDAAGGGSNNWAVAPGRTATGRPILAGDPHRVFEIPGMYAQHHLACDRFDMIGLTVPGVPGFPHFAHNGKVAYCVTHAFMDIHDLYLEQFAGEGRTARFGNDFEPVAWSRDRIAVRGGADREFDIVETRHGPVIAGDPRDGAALTLRSVQFAETDLSFDCLTRMPGASTVAQLYDATRGWGLIDHNLVAGDVAGSIGHLVRARVPSRPRENGWLPVPGWSGEHEWRGWIPHEAMPRVIDPPGGIIVTANNRVVADDHPDYLCTDCHPPYRAERIMKRLVANPAFAVDDAAAIHADTLSPHVGLLRRRLEALGARDDSAAEGLRQMLVAWDGRMDAASEVASAYNAFRRALTRLVTDRSGLEQAISHPFAAVAPGVSPQGQVWWAVPTLLRDDDAGMLKGWSWDQALSEALSVASQNLTGRSWGEEHRPRFTHPLATQFPAWAGLLNPASRPIGGDGDTVLANGLVPSAGPQATYGALSRYVFDVGNWDNSRWVVFHGASGHPASAHYADQNAPWSDCAMVPMLYSWDRIAAEAVTSQELVPA
optimum temperature [5]: 50 °C | Optimum pH (Optimum pH of the enzyme): 9 | pI value [6]: ~4.5
